Reference: DBAASP
Converted amounts (≈) assume the structure as drawn. “And” between values parts separate entries of the source, which are not always exact repeats. Identical values can stand only once.

How the values were obtained:
Assay in all cases: ≥ marks a high value that may be exact or a test limit, other limits are often not marked, values filed in µg/mL are converted to µM
[1] = system: Candida albicans ATCC 2002
[2] = system: Escherichia coli ATCC 25922
[3] = system: Staphylococcus aureus ATCC 2592
[4] = system: Bacillus subtilis 168
[5] = system: Escherichia coli B
[6] = system: Pseudomonas aeruginosa
[7] = system: Staphylococcus aureus
[8] = system: Escherichia coli UB1005
[9] = system: Salmonella enterica subsp. enterica serovar Typhimurium C77-31
[10] = system: Staphylococcus aureus ATCC 25923
[11] = system: Staphylococcus aureus ATCC 29213
[12] = system: Staphylococcus epidermidis ATCC 12228
[13] = system: Enterococcus faecalis ATCC 29212
[14] = system: Pseudomonas aeruginosa ATCC 27853
[15] = system: Acinetobacter baumannii ATCC 19606
[16] = system: Acinetobacter baumannii
[17] = system: Klebsiella pneumoniae ATCC 13883
[18] = system: Klebsiella pneumoniae
[19] = system: Salmonella enterica subsp. enterica serovar Typhimurium ATCC 14028
[20] = system: Escherichia coli

SMILES | MIC [2] | MIC [6] [µM] | MIC [7] [µM] | MIC [8] [µM] | MIC [9] [µM] | MIC [10] [µM] | MIC [11] | MIC [12] [µM] | also measured
CC[C@H](C)[C@H](NC(=O)[C@H](CCCN=C(N)N)NC(=O)[C@@H](NC(=O)[C@@H]1CCCN1C(=O)[C@@H](NC(=O)[C@@H](NC(=O)[C@H](CCC(N)=O)NC(=O)[C@@H]1CCCN1C(=O)[C@@H](NC(=O)[C@@H](NC(=O)[C@H](Cc1cnc[nH]1)NC(=O)[C@@H]1CCCN1C(=O)[C@@H]1CCCN1C(=O)[C@@H](NC(=O)CNC(=O)[C@H](Cc1c[nH]c2ccccc12)NC(=O)[C@H](C)NC(=O)[C@H](CCCCN)NC(=O)[C@H](C)N)[C@@H](C)CC)C(C)C)[C@@H](C)CC)[C@@H](C)CC)C(C)C)C(C)C)C(=O)N[C@@H](CCCN=C(N)N)C(=O)N1CCC[C@H]1C(=O)N[C@@H](CC(C)C)C(=O)NCC(=O)NCC(=O)N[C@@H](CC(N)=O)C(=O)N[C@H](C(=O)O)C(C)C [AKAWGIPPHVIPQIVPVRIRPLGGNV] | 8.98 µM (≈ 25 µg/mL) | – | – | – | – | – | – | – | MIC [1]: 8.98 µM (≈ 25 µg/mL); MIC [3]: 1.15 µM (≈ 3.2 µg/mL)
CC[C@H](C)[C@H](NC(=O)[C@@H]1CCCN1C(=O)[C@H](CCCN=C(N)N)NC(=O)[C@@H]1CCCN1C(=O)[C@@H](NC(=O)[C@@H]1CCCN1C(=O)[C@H](CC(C)C)NC(=O)[C@@H](N)Cc1ccccc1)[C@@H](C)CC)C(=O)N[C@@H](CC(C)C)C(=O)N[C@@H](CC(C)C)C(=O)NCC(=O)N[C@@H](CC(C)C)C(=O)N[C@@H](CC(C)C)C(N)=O [FLPIPRPILLGLL] | 20.5 µM (≈ 30 µg/mL) | – | – | – | – | – | – | – | MIC [1]: 17.1 µM (≈ 25 µg/mL); MIC [3]: 6.84 µM (≈ 9.99 µg/mL)
CSCC[C@H](NC(=O)[C@@H](NC(=O)[C@H](CCCCN)NC(=O)[C@H](Cc1cnc[nH]1)NC(=O)[C@H](CC(C)C)NC(=O)CN)C(C)C)C(=O)N[C@@H](CCCN=C(N)N)C(=O)N[C@@H](CCC(=O)O)C(=O)N[C@H](C(=O)N[C@@H](CC(C)C)C(=O)NCC(=O)N[C@@H](Cc1ccc(O)cc1)C(=O)N[C@@H](CCC(=O)O)C(=O)N[C@@H](CCCN=C(N)N)C(=O)N[C@@H](CC(N)=O)C(=O)N[C@@H](CO)C(=O)N[C@@H](Cc1ccc(O)cc1)C(=O)N[C@@H](CCCCN)C(=O)N[C@@H](CCCCN)C(=O)N[C@@H](Cc1ccccc1)C(=O)N[C@@H](Cc1ccccc1)C(=O)N[C@@H](CC(C)C)C(=O)N[C@@H](CCCN=C(N)N)C(=O)O)C(C)C [GLHKVMREVLGYERNSYKKFFLR] | 10.4 µM (≈ 30 µg/mL) | – | – | – | – | – | – | – | MIC [1]: 2.61 µM (≈ 7.5 µg/mL); MIC [3]: 1.29 µM (≈ 3.7 µg/mL)
CC[C@H](C)[C@H](NC(=O)[C@H](CC(C)C)NC(=O)[C@H](CCCCN)NC(=O)CNC(=O)[C@H](CC(C)C)NC(=O)[C@@H](NC(=O)[C@H](CCCCN)NC(=O)[C@H](CO)NC(=O)[C@H](Cc1c[nH]c2ccccc12)NC(=O)[C@H](CCSC)NC(=O)CN)[C@@H](C)CC)C(=O)N[C@@H](CCCN=C(N)N)C(N)=O [GMWSKILGKLIR] | – | 26.3 (≈ 36.8 µg/mL) | 9.2 (≈ 12.9 µg/mL) | – | – | – | – | – | MIC [4]: 0.9 µM (≈ 1.26 µg/mL); MIC [5]: 3.7 µM (≈ 5.18 µg/mL)
CC[C@H](C)[C@H](NC(=O)[C@H](CC(C)C)NC(=O)[C@@H]1CCCN1C(=O)CNC(=O)[C@H](CC(C)C)NC(=O)[C@@H](NC(=O)[C@H](CCCCN)NC(=O)[C@H](CO)NC(=O)[C@H](Cc1c[nH]c2ccccc12)NC(=O)[C@H](CCSC)NC(=O)CN)[C@@H](C)CC)C(=O)N[C@@H](CCCN=C(N)N)C(N)=O [GMWSKILGPLIR] | – | > 100 | > 100 | – | – | – | – | – | MIC [4]: 3.6 µM (≈ 4.93 µg/mL); MIC [5]: 30 µM (≈ 41.1 µg/mL)
CC(C)C[C@H](NC(=O)[C@H](CCCN=C(N)N)NC(=O)[C@H](CC(C)C)NC(=O)[C@H](CCCN=C(N)N)NC(=O)[C@@H](NC(=O)[C@H](CCCCN)NC(=O)[C@H](CC(C)C)NC(=O)[C@H](CCCN=C(N)N)NC(=O)[C@H](CC(C)C)NC(=O)[C@H](CCCN=C(N)N)NC(=O)[C@@H](N)CC(C)C)[C@@H](C)O)C(=O)N[C@@H](CCCCN)C(N)=O [LRLRLKTRLRLK] | 4 µM (≈ 6.26 µg/mL) | – | – | 4 (≈ 6.26 µg/mL) | 16 (≈ 25 µg/mL) | 32 (≈ 50.1 µg/mL) | 32 µM (≈ 50.1 µg/mL) | 64 (≈ 100 µg/mL) | –
CC(C)C[C@H](NC(=O)[C@H](CCCN=C(N)N)NC(=O)[C@H](CC(N)=O)NC(=O)[C@H](C)NC(=O)[C@H](CCCN=C(N)N)NC(=O)[C@H](CC(C)C)NC(=O)[C@H](Cc1c[nH]c2ccccc12)NC(=O)[C@H](CC(C)C)NC(=O)[C@H](CCCN=C(N)N)NC(=O)[C@H](CCCN=C(N)N)NC(=O)[C@@H](N)CC(C)C)C(N)=O [LRRLWLRANRL] | 128 µM (≈ 188 µg/mL) | – | – | – | ≥ 128 | – | 128 µM (≈ 188 µg/mL) | > 128 | MIC [13]: > 128 µM; MIC [14]: > 128 µM
CC[C@H](C)[C@H](NC(=O)[C@H](CC(C)C)NC(=O)[C@H](Cc1cnc[nH]1)NC(=O)CNC(=O)[C@H](CC(C)C)NC(=O)[C@@H](NC(=O)[C@H](CCCCN)NC(=O)[C@H](CO)NC(=O)[C@H](Cc1c[nH]c2ccccc12)NC(=O)[C@@H](N)CCSC)[C@@H](C)CC)C(=O)N[C@@H](CCCN=C(N)N)C(N)=O [MWSKILGHLIR] | – | > 100 | 45 (≈ 60.9 µg/mL) | – | – | – | – | – | MIC [4]: 5 µM (≈ 6.76 µg/mL); MIC [5]: ≥ 50 µM
CC[C@H](C)[C@H](NC(=O)[C@H](CCCN=C(N)N)NC(=O)[C@H](CCCN=C(N)N)NC(=O)[C@H](CC(C)C)NC(=O)[C@H](CCCN=C(N)N)NC(=O)[C@H](Cc1c[nH]c2ccccc12)NC(=O)[C@H](CCCN=C(N)N)NC(=O)[C@@H](NC(=O)[C@H](CCCN=C(N)N)NC(=O)[C@H](Cc1c[nH]c2ccccc12)NC(=O)[C@H](CCCN=C(N)N)NC(=O)[C@H](CC(C)C)NC(=O)[C@H](CCCN=C(N)N)NC(=O)[C@H](CCCN=C(N)N)NC(=O)[C@H](Cc1ccccc1)NC(=O)[C@@H](N)CCCN=C(N)N)[C@@H](C)O)C(N)=O [RFRRLRWRTRWRLRRI] | 4 µM and 8 µM | – | – | 2 (≈ 4.77 µg/mL) | 4 (≈ 9.53 µg/mL) | – | 4 µM and 8 µM | 4 (≈ 9.53 µg/mL) | MIC [13]: 2 µM (≈ 4.77 µg/mL)
CC(C)C[C@H](NC(=O)[C@H](CCCN=C(N)N)NC(=O)[C@H](CCCN=C(N)N)NC(=O)[C@H](C)NC(=O)[C@H](Cc1c[nH]c2ccccc12)NC(=O)CNC(=O)[C@H](CCCN=C(N)N)NC(=O)[C@@H](N)CCCN=C(N)N)C(=O)N[C@@H](Cc1ccccc1)C(=O)N[C@@H](Cc1ccccc1)C(=O)N[C@@H](C)C(=O)N[C@@H](Cc1ccc(O)cc1)C(=O)NCC(=O)N[C@@H](CCCN=C(N)N)C(=O)N[C@@H](CCCN=C(N)N)C(N)=O [RRGWARRLFFAYGRR] | – | – | – | – | – | > 30 | – | – | MIC [15]: 1.7 µM and 1.5 µM; MIC [16]: 2.6 µM (≈ 5.12 µg/mL); MIC [17]: 5.4 µM and 8.6 µM; MIC [18]: 1.2 µM (≈ 2.36 µg/mL); MIC [19]: 1.5 µM and 2.2 µM
CC(C)C[C@H](NC(=O)[C@H](CCCN=C(N)N)NC(=O)[C@H](CCCCN)NC(=O)[C@H](CCCN=C(N)N)NC(=O)[C@@H](NC(=O)[C@H](Cc1c[nH]c2ccccc12)NC(=O)[C@H](CCCCN)NC(=O)[C@H](CCCN=C(N)N)NC(=O)[C@H](CC(C)C)NC(=O)[C@H](Cc1c[nH]c2ccccc12)NC(=O)[C@@H](N)CCCN=C(N)N)[C@@H](C)O)C(=O)N[C@@H](CCCCN)C(N)=O [RWLRKWTRKRLK] | 16 µM (≈ 27.6 µg/mL) | – | – | 16 (≈ 27.6 µg/mL) | ≥ 64 | 32 (≈ 55.2 µg/mL) | 64 µM (≈ 110 µg/mL) | 16 (≈ 27.6 µg/mL) | –
CC[C@H](C)[C@H](NC(=O)[C@H](CCCCN)NC(=O)[C@H](Cc1c[nH]c2ccccc12)NC(=O)[C@H](CCCCN)NC(=O)[C@@H](NC(=O)[C@H](CCCCN)NC(=O)[C@H](Cc1c[nH]c2ccccc12)NC(=O)[C@H](CCCCN)NC(=O)[C@@H](NC(=O)[C@H](CCCCN)NC(=O)[C@@H](N)Cc1c[nH]c2ccccc12)[C@@H](C)CC)[C@@H](C)CC)C(=O)N[C@@H](CCCCN)C(N)=O [WKIKWKIKWKIK] | 2 µM (≈ 3.37 µg/mL) | 4 (≈ 6.74 µg/mL) | 2 (≈ 3.37 µg/mL) | 2 (≈ 3.37 µg/mL) | 2 (≈ 3.37 µg/mL) | 2 (≈ 3.37 µg/mL) | 2 µM (≈ 3.37 µg/mL) | 2 (≈ 3.37 µg/mL) | MIC [16]: 1.41 µM (≈ 2.38 µg/mL); MIC [20]: 2 µM (≈ 3.37 µg/mL)
